Measured values from US6630500B2, “Selected fused pyrrolocarbazoles” (Cephalon, Inc., priority 2000, dated 2003).

Tests used:
Format in all cases: biochemical
MLK2 = target: T1, MLK2 (Homo sapiens, UniProt Q02779); experiment: Inhibition of Mixed Lineage Kinase-2 (MLK2) activity; conditions: 100 μM ATP; for IC50: values without % sign; for inhibition at 0.1 µM: 100 nM compound
T1 construct: fused on or other part: GST tag
Method: (§1) The kinase activity of MLK1 was assessed using the Millipore Multiscreen TCA “in-plate” format as described for protein kinase C (Pitt & Lee, J. Biomol. Screening, 1: 47-51, 1996). Briefly, each 50-μl assay mixture contained 20 mM Hepes, pH 7.2, 5 mM EGTA, 15 mM MgCl2, 25 mM β-glycerophosphate, 60 μM ATP, 0.25 μCi [γ-^32P]ATP, 0.1% BSA, 500 μ/ml myelin basic protein (UBI #13-104), 2% DMSO, 1 μM of test compound, and 1 μg/ml of baculoviral GST-MLK1KD. Samples were incubated for 15 min at 37° C. The reaction was stopped by adding ice cold 50% TCA and the proteins were allowed to precipitate for 30 min at 4° C. The plates were then washed with ice cold 25% TCA. Supermix scintillation cocktail was added, and the plates were allowed to equilibrate for 1-2 hours prior to counting using the Wallac MicroBeta 1450 PLUS scintillation counter.
(§2) Assays were performed using the Millipore Multiscreen plate format as described for MLK1. Each 50-μl assay mixture contained 20 mM Hepes, pH 7.2, 5 mM EGTA, 15 mM MgCl2, 25 mM β-glycerophosphate, 100 μM ATP, 0.25 μCi [γ-^32P]ATP, 0.1% BSA, 500 μg/ml myelin basic protein (UBI #13-104), 2% DMSO, various concentrations of test compound, and 3 μg/ml of baculoviral GST-MLK2KDLZ. Samples were incubated for 15 min. at 37° C. The reaction was stopped by adding ice cold 50% TCA and the proteins were allowed to precipitate for 30 min at 4° C. The plates were then washed with ice cold 25% TCA. Supermix scintillation cocktail was added, and the plates were allowed to equilibrate for 1-2 hours prior to counting.

MLK3 = target: T2, MLK3 (Homo sapiens, UniProt Q16584); experiment: Inhibition of Mixed Lineage Kinase-3 (MLK3) activity; conditions: 100 μM ATP; for IC50: values without % sign
T2 construct: 2 μg/ml of baculoviral GST-MLK3KD; GST (N); made in house
T2 sequence (Q16584 117-379 limits assumed, species assumed): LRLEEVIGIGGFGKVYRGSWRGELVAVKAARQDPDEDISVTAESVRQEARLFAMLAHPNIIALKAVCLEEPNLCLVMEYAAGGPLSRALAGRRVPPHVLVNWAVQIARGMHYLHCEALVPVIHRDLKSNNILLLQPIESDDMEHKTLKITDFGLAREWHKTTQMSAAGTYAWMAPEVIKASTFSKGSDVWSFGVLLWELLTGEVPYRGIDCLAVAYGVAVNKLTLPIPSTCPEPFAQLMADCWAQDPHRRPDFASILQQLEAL
Method: as §1
as §2, with “MLK1. Briefly, each” for “MLK1. Each”, “and 2” for “and 3”, “baculoviral GST-MLK3KD. Sample” for “baculoviral GST-MLK2KDLZ. Samples”, “15 min” for “15 min.”

MLK1 = target: T3, MLK1 (Homo sapiens, UniProt P80192); experiment: Inhibition of Mixed Lineage Kinase-1 (MLK1) activity; conditions: 60 μM ATP; for IC50: values without % sign
T3 construct: 1 μg/ml of baculoviral GST-MLK1KD; GST (N); made in house
T3 sequence (P80192 144-412 limits assumed, species assumed): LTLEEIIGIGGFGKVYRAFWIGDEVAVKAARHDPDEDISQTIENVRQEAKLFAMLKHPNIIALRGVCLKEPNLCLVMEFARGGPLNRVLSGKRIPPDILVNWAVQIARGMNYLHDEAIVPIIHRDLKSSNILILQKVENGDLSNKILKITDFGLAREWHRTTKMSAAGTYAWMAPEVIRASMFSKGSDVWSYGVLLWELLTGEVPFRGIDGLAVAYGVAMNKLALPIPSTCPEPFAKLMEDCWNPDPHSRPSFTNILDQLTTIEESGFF
Method: The kinase activity of MLK1 was assessed using the Millipore Multiscreen TCA “in-plate” format as described for protein kinase C (Pitt & Lee, J. Biomol. Screening, 1: 47-51, 1996). Briefly, each 50-μl assay mixture contained 20 mM Hepes, pH 7.2, 5 mM EGTA, 15 mM MgCl2, 25 mM β-glycerophosphate, 60 μM ATP, 0.25 μCi [γ-^32P]ATP, 0.1% BSA, 500 μ/ml myelin basic protein (UBI #13-104), 2% DMSO, […], and 1 μg/ml of baculoviral GST-MLK1KD. Samples were incubated for 15 min at 37° C. The reaction was stopped by adding ice cold 50% TCA and the proteins were allowed to precipitate for 30 min at 4° C. The plates were then washed with ice cold 25% TCA. Supermix scintillation cocktail was added, and the plates were allowed to equilibrate for 1-2 hours prior to counting using the Wallac MicroBeta 1450 PLUS scintillation counter.

[1] = target: T4, VEGF receptor (human flk-1, KDR, VEGFR2) kinase domain (Homo sapiens, UniProt P35968); experiment: Inhibition of VEGF receptor kinase activity (ELISA); conditions: 40 μM ATP; for IC50: values without % sign
T4 construct: VEGF receptor (human flk-1, KDR, VEGFR2) kinase domain; made in house
T4 sequence (P35968 834-1162 limits assumed): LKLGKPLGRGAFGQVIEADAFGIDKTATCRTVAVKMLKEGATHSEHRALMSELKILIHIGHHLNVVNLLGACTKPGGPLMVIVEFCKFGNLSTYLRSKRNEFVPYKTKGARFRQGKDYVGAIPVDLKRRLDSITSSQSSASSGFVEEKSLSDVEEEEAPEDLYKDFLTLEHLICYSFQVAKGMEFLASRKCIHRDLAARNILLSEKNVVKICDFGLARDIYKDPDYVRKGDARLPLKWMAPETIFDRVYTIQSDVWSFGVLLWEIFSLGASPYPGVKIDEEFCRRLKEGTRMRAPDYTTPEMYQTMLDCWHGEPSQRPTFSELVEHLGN
Method: Fused pyrrolocarbazole compounds were examined for their inhibitory effects on the kinase activity of baculovirus-expressed VEGF receptor (human flk-1, KDR, VEGFR2) kinase domain using the procedure described for the trkA kinase ELISA assay described below. The kinase reaction mixture, consisting of 50 mM Hepes, pH 7.4, 40 μM ATP, 10 mM MnCl2, 0.1% BSA, 2% DMSO, and various concentrations of inhibitor, was transferred to PLC-γ/GST-coated plates. VEGFR kinase was added and the reaction was allowed to proceed for 15 min. at 37° C. Detection of phosphorylated product was accomplished by addition of anti-phosphotyrosine antibody (UBI). A secondary enzyme-conjugated antibody was delivered to capture the antibody-phosphorylated PLC-γ/GST complex. The activity of the bound enzyme was measured via an amplified detection system (Gibco-BRL). Inhibition data were analyzed using the sigmoidal dose-response (variable slope) equation in GraphPad Prism.
Selected isomeric fused pyrrolocarbazole and isoindolone compounds can be tested for their ability to inhibit the kinase activity of baculovirus-expressed human trkA cytoplasmic domain using an ELISA-based assay as previously described (Angeles et al., Anal. Biochem. 236: 49-55, 1996). Briefly, the 96-well microtiter plate is coated with substrate solution (recombinant human phospholipase C-γl/glutathione S-transferase fusion protein (Rotin et al., EMBO J., 11: 559-567, 1992). Inhibition studies are performed in 100 μl assay mixtures containing 50 mM Hepes, pH 7.4, 40 μM ATP, 10 mM MnCl2, 0.1% BSA, 2% DMSO, and various concentrations of inhibitor. The reaction is initiated by addition of trkA kinase and allowed to proceed for 15 minutes at 37° C. An antibody to phosphotyrosine (UBI) is then added, followed by a secondary enzyme-conjugated antibody, alkaline phosphatase-labelled goat anti-mouse IgG (Bio-Rad). The activity of the bound enzyme is measured via an amplified detection system (Gibco-BRL). Inhibition data are analyzed using the sigmoidal dose-response (variable slope) equation in GraphPad Prism.

T1 sequence (Q02779 98-440 limits assumed): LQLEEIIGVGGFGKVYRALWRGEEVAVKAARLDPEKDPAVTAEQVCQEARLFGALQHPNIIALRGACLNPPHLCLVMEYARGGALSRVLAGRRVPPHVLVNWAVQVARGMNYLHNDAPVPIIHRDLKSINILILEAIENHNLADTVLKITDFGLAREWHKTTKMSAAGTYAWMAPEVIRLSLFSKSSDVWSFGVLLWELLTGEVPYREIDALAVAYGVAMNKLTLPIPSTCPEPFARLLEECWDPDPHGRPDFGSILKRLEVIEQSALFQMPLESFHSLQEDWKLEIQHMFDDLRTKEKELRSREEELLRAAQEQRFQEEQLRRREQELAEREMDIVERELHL

Row | IC50 (MLK2) [nM] | IC50 (MLK3) [nM] | IC50 (MLK1) [nM] | IC50 [1] [nM] | inhibition at 0.1 µM (MLK2) [%] | inhibition at 0.1 µM (MLK3; 100 nM compound) [%] | inhibition at 0.1 µM (MLK1; 100 nM compound) [%] | inhibition at 0.3 µM ([1]; 300 nM compound, read-out: VEGFR2 % inh. @ 300 nM) [%] | SMILES
1 | 229 | 32 | 42 | 31 | – | – | – | – | CC(C)OCc1ccc2c(c1)c1c3c(c4c(c1n2CCCOC(=O)CCN)Cc1ccccc1-4)C(=O)NC3 [Compound 20]
2 | – | 8 | 22 | 107 | 39 | – | – | – | O=C1NCc2c1c1c(c3c2c2ccccc2n3CCO)Cc2ccccc2-1 [A, reference compound]
3 | 131 | 16 | 28 | 240 | – | – | – | – | CCOC(C)c1ccc2c(c1)c1c3c(c4c(c1n2CCCO)Cc1ccccc1-4)C(=O)NC3 (single isomer, unassigned) [Compound 12]
4 | – | 13 | 19 | 13 | 76 | – | – | – | CCCOCc1ccc2c(c1)c1c3c(c4c(c1n2CCCO)Cc1ccccc1-4)C(=O)NC3 [Compound 8]
5 | – | – | – | – | 0 | 30 | 8 | 17 | CC(C)CC(N)C(=O)OCCCn1c2ccccc2c2c3c(c4c(c21)Cc1ccccc1-4)C(=O)NC3 (centres unmarked) [C, reference compound]
6 | – | 17 | 31 | 48 | 46 | – | – | – | O=C1NCc2c1c1c(c3c2c2ccccc2n3CCCO)Cc2ccccc2-1 [Compound B, reference compound]
7 | 170 | 28 | 74 | 18 | – | – | – | – | CC(C)OCc1ccc2c(c1)c1c3c(c4c(c1n2CCCOC(=O)CN(C)C)Cc1ccccc1-4)C(=O)NC3 [Compound 22]
8 | – | – | 35 | 11 | 50 | – | – | – | CC(C)(C)OCc1ccc2c(c1)c1c3c(c4c(c1n2CCCO)Cc1ccccc1-4)C(=O)NC3 [Compound 17]
9 | – | 16 | 27 | 12 | 45 | – | – | – | CC[C@@H](C)OCc1ccc2c(c1)c1c3c(c4c(c1n2CCCO)Cc1ccccc1-4)C(=O)NC3 [Compound 5]
10 | – | 19 | 38 | 19 | 51 | – | – | – | CC[C@H](C)OCc1ccc2c(c1)c1c3c(c4c(c1n2CCCO)Cc1ccccc1-4)C(=O)NC3 [Compound 6]
11 | – | 5 | 9 | 208 | 64 | – | – | – | O=C1NCc2c1c1c(c3c2c2cc(CO)ccc2n3CCCO)Cc2ccccc2-1 [Compound 29]
12 | – | 26 | 20 | 73 | 62 | – | – | – | COC(C)c1ccc2c(c1)c1c3c(c4c(c1n2CCCO)Cc1ccccc1-4)C(=O)NC3 (centres unmarked) [Compound 13]
